{
  "source": "paper PMC8295177",
  "about": "(Cancer discovery, 2021)",
  "origin": "cited, not measured here",
  "key": {"[1]": {"test_system": "unselected stage IV NSCLC", "details": "second-line monotherapy; cited from earlier work"}, "EGFRex20ins mutants": {"test_system": "EGFRex20ins mutants", "details": "cited from earlier work"}},
  "data": [
    {"smiles": "CC(=O)O[C@@]12CO[C@@H]1C[C@H](O)[C@@]1(C)C(=O)[C@H](O)C3=C(C)[C@@H](OC(=O)[C@H](O)[C@@H](NC(=O)OC(C)(C)C)c4ccccc4)C[C@@](O)([C@@H](OC(=O)c4ccccc4)[C@H]21)C3(C)C", "note": "[Docetaxel]", "values": [
      {"measurement": "median duration of response", "setting": "[1]", "value": "approximately 6 months"}
    ]},
    {"smiles": "C=CC(=O)N1CCC(Oc2cc3c(Nc4ccc(Cl)c(Cl)c4F)ncnc3cc2OC)CC1", "note": "[Poziotinib]", "values": [
      {"measurement": "inhibition of EGFRex20ins mutants in vitro", "setting": "EGFRex20ins mutants", "value": "potent inhibition"}
    ]}
  ]
}
